# Experimental data as given in patent US10881110B2, “Herbicidal compositions comprising isoxazolo[5,4-b]pyridines” (BASF SE, priority 2014, dated 2021).
# Values joined by “and” are separate entries in the source; they are usually repeats but may differ in a detail not shown here. Equal entries are not always repeated.
# Experiments:
# Assay in all cases: greenhouse post-emergence herbicidal test
# [1] = test system: ERICA; assay type: in vivo, Conyza canadensis; parameters: key to herbicidal activity against ERICA found: rating on a scale from 0 to 100; conditions: post emergence
# In short: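 Plants were grown in loamy sand (approx. 4.6% humus, 69.9% sand) to 1–15 cm and sprayed post-emergence with actives suspended or emulsified in water, from a 10% by weight emulsion concentrate. Kept at 10-25° C or 20-35° C by species, damage was scored 0–100 at 20 days.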
# [2] = test system: POLAV; assay type: in vivo, Polygonum aviculare; parameters: key: rating on a scale from 0 to 100
# In short: (§1)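 Post-emergence greenhouse test: plants in loamy sand, sprayed at 1–15 cm height with aqueous spray liquor from 10% emulsion concentrates, kept at 10-25 °C or 20-35 °C by species. Damage scored 0–100 (100 = complete destruction), usually 20 days after treatment. Expected additive effect E from Colby: E=X+Y−(X·Y/100).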
# [3] = test system: POLPE; assay type: in vivo, Persicaria maculosa; parameters: key: scale 0 to 100
# In short: as §1
# [4] = test system: SEBEX; assay type: in vivo, Sesbania exaltata; conditions: application rate a.i.: I.1 31.25 g/ha
# Procedure: The culture containers used were plastic pots containing medium loamy sand with approximately 4.6% of humus and 69.9% sand as substrate. The seeds of the test plants were sown separately for each species.
# For the post-emergence treatment, the test plants were grown to a plant height of from 1 to 15 cm, depending on the plant habit, and only then treated with the active compounds which had been suspended or emulsified in water. To this end, the test plants were either sown directly, and grown in the same containers, or they were first grown separately as seedlings and transplanted into the test containers a few days prior to treatment.
# Depending on the species, the plants were kept at 10-25° C. and 20-35° C., respectively.
# The test period extended over 1 to 3 weeks. During this time, the plants were tended and their response to the individual treatments was evaluated 20 days after treatment except mentioned otherwise.
# Evaluation was carried out using a scale from 0 to 100. 100 means no emergence of the plants, or complete destruction of at least the above-ground parts, and 0 means no damage or normal course of growth.
# The respective stated components A and B, and, if appropriate, C, were formulated as a 10% by weight strength emulsion concentrate and, with addition of the amount of solvent system, introduced into the spray liquor used for applying the active compound. In the examples, the solvent used was water.
# In the examples below, using the method of S. R. Colby (1967) “Calculating synergistic and antagonistic responses of herbicide combinations”, Weeds 15, p. 22 ff., the value E, which is expected if the activity of the individual active compounds is only additive, was calculated. E=X+Y−(X·Y/100)
# [5] = test system: SORVU; assay type: in vivo; conditions: 6 days after treatment
smiles,measurement,setting,value
O=C(O)c1cc(C2CC2)nc2onc(C3CC3)c12 [I.1],herbicidal activity against ERICA found,"[1]; 6 days after treatment, g/ha a.i.: I.1 125, naptalam 50, mixture 125+50",70
same,herbicidal activity against ERICA found,"[1]; I.1 15.62 g/ha, B.95 1 g/ha a.i.",0
same,herbicidal activity against ERICA found,"[1]; I.1 15.62 g/ha, B.95 2 g/ha a.i.",0
same,herbicidal activity against ERICA found,"[1]; I.1 31.25 g/ha, B.103 15 g/ha a.i.",0
same,herbicidal activity against ERICA found,"[1]; I.1 31.25 g/ha, B.95 1 g/ha a.i.",0
same,herbicidal activity against ERICA found,"[1]; I.1 31.25 g/ha, B.95 2 g/ha a.i.",0
same,herbicidal activity against ERICA found,"[1]; I.1 62.5 g/ha, B.103 7.5 g/ha a.i.",0
same,herbicidal activity against ERICA found,"[1]; I.1 62.5 g/ha, B.103 15 g/ha a.i.",0
same,herbicidal activity against ERICA found,"[1]; I.1 62.5 g/ha, B.57 2 g/ha a.i.",10
same,herbicidal activity against ERICA found,"[1]; I.1 62.5 g/ha, B.89 25 g/ha a.i.",10
same,herbicidal activity against ERICA found,"[1]; I.1 62.5 g/ha, B.95 1 g/ha a.i.",10
same,herbicidal activity against ERICA found,"[1]; I.1 62.5 g/ha, B.95 2 g/ha a.i.",10
same,herbicidal activity against ERICA found,"[1]; a.i. g/ha: I.1 31.25, B.92 0.5, 20 days after treatment",25%
same,herbicidal activity against ERICA found,"[1]; a.i. g/ha: I.1 62.5, B.191 225, 20 days after treatment",90%
same,herbicidal activity against ERICA found,"[1]; a.i. g/ha: I.1 62.5, B.69 25, 20 days after treatment",90%
same,herbicidal activity against ERICA found,"[1]; a.i. g/ha: I.1 62.5, B.80 250, 20 days after treatment",65%
same,herbicidal activity against ERICA found,"[1]; application rate a.i.: I.1 20.8 g/ha, B.107 (topramezone) 6 g/ha, alone or as mixture (composition 1.107)",65
same,herbicidal activity against ERICA found,"[1]; application rate a.i.: I.1 31.25 g/ha, B.100 (isoxaflutole) 12.5 g/ha, alone or as mixture (composition 1.100)",25
same,herbicidal activity against ERICA found,"[1]; application rate a.i.: I.1 31.25 g/ha, B.84 (paraquat-dichloride) 17.5 g/ha, alone or as mixture (composition 1.84)",55
same,herbicidal activity against ERICA found,"[1]; application rate a.i.: I.1 62.5 g/ha, B.100 (isoxaflutole) 12.5 g/ha, alone or as mixture (composition 1.100)",75
same,herbicidal activity against ERICA found,"[1]; application rate a.i.: I.1 62.5 g/ha, B.107 (topramezone) 6 g/ha, alone or as mixture (composition 1.107)",65
same,herbicidal activity against ERICA found,[1]; applied alone at 62.5 g/ha a.i.,75
same,herbicidal activity against ERICA found,[1]; applied alone at 125 g/ha a.i.,75 and 65
same,herbicidal activity against ERICA found,"[1]; g/ha a.i.: I.1 31.25, B.52 2.5, mixture 31.25+2.5",0
same,herbicidal activity against ERICA found,"[1]; g/ha a.i.: I.1 31.25, B.52 5, mixture 31.25+5",0
same,herbicidal activity against ERICA found,"[1]; g/ha a.i.: I.1 62.5, B.52 2.5, mixture 62.5+2.5",35
same,herbicidal activity against ERICA found,"[1]; g/ha a.i.: I.1 62.5, B.52 5, mixture 62.5+5",35
same,herbicidal activity against POLAV found,[2]; 62.5 g/ha a.i.,65
same,herbicidal activity against POLAV found,[2]; 125 g/ha a.i.,65
same,herbicidal activity against POLAV found,"[2]; 6 days after treatment, g/ha a.i.: I.1 31.25, naptalam 50, mixture 31.25+50",70
same,herbicidal activity against POLAV found,"[2]; 6 days after treatment, g/ha a.i.: I.1 31.25, naptalam 200, mixture 31.25+200",70
same,herbicidal activity against POLAV found,"[2]; 6 days after treatment, g/ha a.i.: I.1 62.5, B.96 70, mixture 62.5+70",70
same,herbicidal activity against POLAV found,"[2]; 6 days after treatment, g/ha a.i.: I.1 62.5, B.96 140, mixture 62.5+140",70
same,herbicidal activity against POLAV found,"[2]; 6 days after treatment, g/ha a.i.: I.1 62.5, naptalam 50, mixture 62.5+50",70
same,herbicidal activity against POLAV found,"[2]; 6 days after treatment, g/ha a.i.: I.1 62.5, naptalam 100, mixture 62.5+100",70
same,herbicidal activity against POLAV found,"[2]; 6 days after treatment, g/ha a.i.: I.1 62.5, naptalam 200, mixture 62.5+200",70
same,herbicidal activity against POLAV found,"[2]; a.i. g/ha: I.1 15.6, B.190 62.5, 20 days after treatment",45%
same,herbicidal activity against POLAV found,"[2]; a.i. g/ha: I.1 31.25, bentazon Na 125, 20 days after treatment",80%
same,herbicidal activity against POLPE found,[3]; 31.25 g/ha a.i.,45 and 70
same,herbicidal activity against POLPE found,"[3]; 6 days after treatment, g/ha a.i.: I.1 31.25, B.96 35, mixture 31.25+35",10
same,herbicidal activity against POLPE found,"[3]; application rate a.i.: I.1 31.25 g/ha, B.139 (pyroxasulfone) 12.5 g/ha, alone or as mixture (composition 1.139)",30
same,"herbicidal activity against SEBEX, found","[4]; B.139 (pyroxasulfone) 25 g/ha, alone or as mixture (composition 1.139)",80
same,"herbicidal activity against SEBEX, found","[4]; B.87 (carfentrazone-ethyl) 1.75 g/ha, alone or as mixture (composition 1.87)",75
same,herbicidal activity against SORVU found,"[5]; g/ha a.i.: I.1 31.25, B.96 140, mixture 31.25+140",0
same,herbicidal activity against SORVU found,"[5]; g/ha a.i.: I.1 62.5, naptalam 200, mixture 62.5+200",20
